Laboratory results reported in PubChem BioAssay AID1963856 (Molecular Pharmacology Branch, DTP, NCI, 2024).

System: LG0567-F671-PDC KRAS tumor spheroid viability
Experiment: Anticancer human tumor LG0567-F671-PDC patient-derived lung adenocarcinoma cell line growth inhibition [KRAS2]
Settings: spheroids with HUVEC and MSC; for IC50: curve of first compound; for viability, T/C: stronger effect = lower value
Method in brief: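 Combination screen of spheroid viability in tumor-cell co-cultures with endothelial (HUVEC) and mesenchymal stem cell stroma. Each agent was tested in half-log dilutions, topping at clinical Cmax or at 10 microM without a known Cmax.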

[1] = second compound 0.1 µM, first compound 0.0316 µM
[2] = second compound 0.1 µM, first compound 0.1 µM
[3] = second compound 0.1 µM, first compound 0.316 µM
[4] = second compound 0.1 µM, first compound 1 µM
[5] = second compound 0.1 µM, first compound 3.16 µM
[6] = second compound 0.1 µM, first compound 10 µM
[7] = second compound 0.316 µM, first compound 0.0316 µM
[8] = second compound 0.316 µM, first compound 0.1 µM
[9] = second compound 0.316 µM, first compound 0.316 µM
[10] = second compound 0.316 µM, first compound 1 µM
[11] = second compound 0.316 µM, first compound 3.16 µM
[12] = second compound 0.316 µM, first compound 10 µM
[13] = second compound 1 µM, first compound 0.0316 µM
[14] = second compound 1 µM, first compound 0.1 µM
[15] = second compound 1 µM, first compound 0.316 µM
[16] = second compound 1 µM, first compound 1 µM
[17] = second compound 1 µM, first compound 3.16 µM
[18] = second compound 1 µM, first compound 10 µM
[19] = second compound 3.16 µM, first compound 0.0316 µM
[20] = second compound 3.16 µM, first compound 0.1 µM
[21] = second compound 3.16 µM, first compound 0.316 µM
[22] = second compound 3.16 µM, first compound 1 µM
[23] = second compound 3.16 µM, first compound 3.16 µM
[24] = second compound 3.16 µM, first compound 10 µM
[25] = second compound 10 µM, first compound 0.0316 µM
[26] = second compound 10 µM, first compound 0.1 µM
[27] = second compound 10 µM, first compound 0.316 µM
[28] = second compound 10 µM, first compound 1 µM
[29] = second compound 10 µM, first compound 3.16 µM
[30] = second compound 10 µM, first compound 10 µM
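Also: drug exposure lasted seven days after spheroids formed for three days.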
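For viability, T/C in this document: 100% = DMSO vehicle control viability.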

Row | Structure (SMILES) | IC50 (second compound 0.1 µM) [nM] | IC50 (second compound 0.316 µM) [nM] | IC50 (second compound 1 µM) [nM] | IC50 (second compound 3.16 µM) [nM] | viability, T/C [1] [%] | viability, T/C [2] [%] | viability, T/C [3] [%] | viability, T/C [4] [%] | viability, T/C [5] [%] | viability, T/C [6] [%] | viability, T/C [7] [%] | viability, T/C [8] [%] | viability, T/C [9] [%] | viability, T/C [10] [%] | viability, T/C [11] [%] | viability, T/C [12] [%] | viability, T/C [13] [%] | viability, T/C [14] [%] | viability, T/C [15] [%] | viability, T/C [16] [%] | also measured
1 | CC(C)NCC(C(=O)N1CCN(c2ncnc3c2C(C)CC3O)CC1)c1ccc(Cl)cc1 (stereo not given) + CNCc1ccccc1-c1csc(C(C)Nc2nc(C)nc3cc(OC)c(OC)cc23)c1 | > 10000 | > 10000 | 675 | < 31.6 | 78.9 | 72.3 | 53 | 62 | 70.9 | 61.6 | 68.2 | 54.6 | 46.7 | 54.5 | 59.1 | 54.6 | 60.4 | 63.5 | 52.3 | 42.8 | IC50 (second compound 10 µM): < 31.6 nM; viability, T/C [17]: 48.3%; viability, T/C [18]: 42.2%; viability, T/C [19]: 0.25%; viability, T/C [20]: 0.18%; viability, T/C [21]: 0.11%; viability, T/C [22]: 1.4%; viability, T/C [23]: 0.12%; viability, T/C [24]: 0.97%; viability, T/C [25]: 0.84%; viability, T/C [26]: 0.44%; viability, T/C [27]: 0.13%; viability, T/C [28]: 0.12%; viability, T/C [29]: 2.26%; viability, T/C [30]: 0.6%
2 | COc1cc2nccc(Oc3ccc(NC(=O)C4(C(=O)Nc5ccc(F)cc5)CC4)cc3)c2cc1OC + COc1cc2nc(C)nc(NC(C)c3cc(N)cc(C(F)(F)F)c3)c2cc1OC1CCOC1 | > 10000 | < 31.6 | < 31.6 | 204 | 78.6 | 71.5 | 56.5 | 32.8 | 101 | 95.6 | 61.5 | 58.6 | 45.4 | 25.6 | 87.3 | 74 | 43.8 | 53 | 42.7 | 20.9 | IC50 (second compound 10 µM): 175 nM; viability, T/C [17]: 79.8%; viability, T/C [18]: 53.3%; viability, T/C [19]: 63.7%; viability, T/C [20]: 62%; viability, T/C [21]: 42.1%; viability, T/C [22]: 24.8%; viability, T/C [23]: 9.35%; viability, T/C [24]: 72.6%; viability, T/C [25]: 71.7%; viability, T/C [26]: 54.2%; viability, T/C [27]: 49.2%; viability, T/C [28]: 37.4%; viability, T/C [29]: 1.24%; viability, T/C [30]: 78.7%
3 | CCNC(=O)CC1N=C(c2ccc(Cl)cc2)c2cc(OC)ccc2-n2c(C)nnc21 (stereo not given) + C=CC(=O)N1CCN(c2nc(OCC3CCCN3C)nc3c2CCN(c2cccc4cccc(C)c24)C3)CC1CC#N | < 31.6 | 2000 | < 31.6 | < 31.6 | 46.5 | 41.5 | 25.6 | 19.4 | 15.3 | 12.9 | 99.2 | 109 | 72.8 | 60.9 | 46.8 | 40.2 | 35.7 | 32.3 | 24.6 | 17.5 | IC50 (second compound 0.0316 µM): 51.2 nM; viability, T/C (second compound 0.0316 µM, first compound 0.0316 µM): 48.4%; viability, T/C (second compound 0.0316 µM, first compound 0.1 µM): 52.5%; viability, T/C (second compound 0.0316 µM, first compound 0.316 µM): 36.7%; viability, T/C (second compound 0.0316 µM, first compound 1 µM): 25.7%; viability, T/C (second compound 0.0316 µM, first compound 3.16 µM): 17.2%; viability, T/C (second compound 0.0316 µM, first compound 10 µM): 16.6%; viability, T/C [17]: 14.6%; viability, T/C [18]: 12.8%; viability, T/C [19]: 41.3%; viability, T/C [20]: 32.7%; viability, T/C [21]: 22.6%; viability, T/C [22]: 13.3%; viability, T/C [23]: 9.07%; viability, T/C [24]: 7.07%
